In test [1] the target is Fibroblast growth factor receptor 2 (Homo sapiens) (UniProt P21802). The following applies: Compound concentration 20.0 uM.
The next test concerns the target T1, Peregrin (Homo sapiens) (UniProt P55201).
T1 sequence (whole entry): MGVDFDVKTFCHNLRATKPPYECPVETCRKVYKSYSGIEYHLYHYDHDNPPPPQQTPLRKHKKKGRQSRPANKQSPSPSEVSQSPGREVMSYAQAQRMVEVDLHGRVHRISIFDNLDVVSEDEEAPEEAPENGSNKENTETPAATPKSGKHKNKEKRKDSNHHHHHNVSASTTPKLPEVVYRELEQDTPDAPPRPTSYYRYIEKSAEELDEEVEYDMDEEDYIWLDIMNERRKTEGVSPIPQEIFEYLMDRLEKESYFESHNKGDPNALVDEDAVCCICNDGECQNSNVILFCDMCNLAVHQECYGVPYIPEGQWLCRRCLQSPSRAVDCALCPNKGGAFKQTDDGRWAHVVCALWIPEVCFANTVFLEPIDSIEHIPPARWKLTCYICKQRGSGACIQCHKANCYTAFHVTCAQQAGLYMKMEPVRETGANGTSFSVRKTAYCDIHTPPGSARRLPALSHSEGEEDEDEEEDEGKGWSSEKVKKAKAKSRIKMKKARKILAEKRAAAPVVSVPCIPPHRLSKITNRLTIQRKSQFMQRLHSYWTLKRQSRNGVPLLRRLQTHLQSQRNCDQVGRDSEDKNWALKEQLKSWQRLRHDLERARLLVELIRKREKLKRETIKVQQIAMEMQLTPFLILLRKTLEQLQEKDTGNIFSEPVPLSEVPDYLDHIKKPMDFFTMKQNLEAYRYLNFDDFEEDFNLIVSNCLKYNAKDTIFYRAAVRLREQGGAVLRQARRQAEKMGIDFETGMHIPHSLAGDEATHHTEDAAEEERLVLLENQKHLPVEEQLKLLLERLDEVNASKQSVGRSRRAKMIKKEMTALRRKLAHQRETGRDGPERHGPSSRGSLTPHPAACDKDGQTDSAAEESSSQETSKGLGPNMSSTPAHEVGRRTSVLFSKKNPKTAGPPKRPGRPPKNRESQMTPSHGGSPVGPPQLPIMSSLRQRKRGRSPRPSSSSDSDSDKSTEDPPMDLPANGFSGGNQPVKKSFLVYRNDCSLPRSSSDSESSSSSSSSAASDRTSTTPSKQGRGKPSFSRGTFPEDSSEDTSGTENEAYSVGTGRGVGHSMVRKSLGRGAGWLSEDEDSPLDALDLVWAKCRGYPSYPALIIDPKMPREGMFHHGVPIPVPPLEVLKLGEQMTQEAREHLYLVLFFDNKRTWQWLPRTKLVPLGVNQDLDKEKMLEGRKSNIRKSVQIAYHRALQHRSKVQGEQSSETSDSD
The conditions noted are these: Compound concentration 20.0 uM.

Several values for one entry are separate records, joined by “and”; a condition that tells them apart may be missing. Identical values can stand only once. Non-standard residues stand in square brackets, D forms with d. Residues, ends and D or L forms follow the SMILES beside them. *: point of attachment. Tyr(3-Cl) = N[C@@H](Cc1ccc(O)c(Cl)c1)C(=O)O; Benzoyl(3,5-Cl2) = O=C(c1cc(Cl)cc(Cl)c1)*; Lys(Et2) = CCN(CC)CCCC[C@H](N)C(=O)O; Gly(cPent) = N[C@H](C(=O)O)C1CCCC1; NH(propargyl) = C#CCN*

Sequence of Fibroblast growth factor receptor 2 (Homo sapiens) (P21802 22-821 limits assumed): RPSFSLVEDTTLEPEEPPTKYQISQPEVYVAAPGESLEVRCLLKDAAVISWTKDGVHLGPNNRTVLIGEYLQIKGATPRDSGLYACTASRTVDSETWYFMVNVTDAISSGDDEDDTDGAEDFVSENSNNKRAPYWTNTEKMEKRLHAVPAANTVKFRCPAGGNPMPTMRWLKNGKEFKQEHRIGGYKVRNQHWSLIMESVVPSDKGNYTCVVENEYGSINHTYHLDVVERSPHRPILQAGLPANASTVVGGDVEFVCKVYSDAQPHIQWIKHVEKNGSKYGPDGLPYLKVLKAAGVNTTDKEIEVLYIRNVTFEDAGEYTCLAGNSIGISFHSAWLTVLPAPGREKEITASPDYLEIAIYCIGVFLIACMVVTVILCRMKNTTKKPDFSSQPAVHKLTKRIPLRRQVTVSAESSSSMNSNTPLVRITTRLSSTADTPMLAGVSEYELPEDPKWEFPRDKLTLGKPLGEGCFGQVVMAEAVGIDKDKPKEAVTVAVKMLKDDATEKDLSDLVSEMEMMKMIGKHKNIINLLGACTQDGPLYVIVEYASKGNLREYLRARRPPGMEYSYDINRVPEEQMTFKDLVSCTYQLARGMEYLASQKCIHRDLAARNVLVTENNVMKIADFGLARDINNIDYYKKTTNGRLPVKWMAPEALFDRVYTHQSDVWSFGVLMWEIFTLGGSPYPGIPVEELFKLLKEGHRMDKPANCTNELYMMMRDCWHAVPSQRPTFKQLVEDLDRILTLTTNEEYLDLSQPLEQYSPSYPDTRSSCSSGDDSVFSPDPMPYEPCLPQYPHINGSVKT

In the case of `N[C@@H](CCNCc1ccc(Cl)cc1)C(=O)N1CCCCC1`, the results for the shift in melting temperature (ΔTm) (in test [1]; at Peregrin (Homo sapiens)) were -0.56 °C and 0.85 °C, respectively.

Consider `CC(C)C[C@@H](C=O)NC(=O)[C@@H](NS(=O)(=O)c1ccc(F)cc1)C(C)C`, for which the shift in melting temperature (ΔTm) was -0.07 °C in test [1] and -1.65 °C at Peregrin (Homo sapiens).

In the case of `C[C@]12O[C@H](C[C@]1(O)CO)n1c3ccccc3c3c4c(c5c6ccccc6n2c5c31)CNC4=O`, the ΔTm in test [1] is 5.19 °C; at Peregrin (Homo sapiens), -0.7 °C.

Take `COC(=O)C[C@@H]1N=C(c2ccc(Cl)cc2)c2c(sc(C)c2C)-n2c(C)nnc21`: the shift in melting temperature (ΔTm) in test [1] is 0.53 °C; at Peregrin (Homo sapiens), -0.95 °C.

For the compound `Cc1cc(OCc2nnc(SC3CCCC3)n2-c2cccnc2)ccc1-c1ccc(S(C)(=O)=O)cc1`, the ΔTm was -3.4 °C in test [1] and -5.44 °C at Peregrin (Homo sapiens).

Regarding `CNCc1ccc(-c2[nH]c3cc(F)cc4c3c2CCNC4=O)cc1`, the ΔTm was -0.11 °C in test [1] and 3.14 °C at Peregrin (Homo sapiens).

In the case of `C=CCn1c(N[C@@H]2C[C@H](c3ccc(OCc4ccccc4)cc3)CN(C)C2)nc2cc[nH]c2c1=O`, the ΔTm in test [1] was 0.37 °C; at Peregrin (Homo sapiens), 3.96 °C.

Consider `CNC(=O)c1cnc(N2CCC[C@H](N)C2)nc1Nc1cc(C(C)C)nc(C(C)C)c1`, for which the thermal shift (ΔTm) in test [1] was -3.52 °C; on Peregrin (Homo sapiens) it was -0.82 °C.

As for `CCCc1nc(C)c2c(C)nc3ccc(OC)nc3n12`, the shift in melting temperature (ΔTm) in test [1] was -0.53 °C; on Peregrin (Homo sapiens), -0.07 °C.

Regarding `Cc1ccc2[nH]c3c(c2c1)CCCC3C(N)=O` (centres undefined), the shift in melting temperature (ΔTm) in test [1] was determined as 0.03 °C; on Peregrin (Homo sapiens) it was 0.79 °C.

Consider `CC(=O)NCC(=O)N1CCC[C@@H]1B(O)O`, for which the shift in melting temperature (ΔTm) was 0.51 °C in test [1] and 2.29 °C at Peregrin (Homo sapiens).

Take `CC(C)(C)NS(=O)(=O)c1cccc2c(NC(=O)[C@H](Cc3ccccc3)NC(=O)C3CCCCC3)cccc12`: the ΔTm was 0.01 °C in test [1] and 0.28 °C on Peregrin (Homo sapiens).

`O=C(C1CC1)N1CC[C@@H](Cc2n[nH]c(=O)n2-c2ccc(-c3ccc4occc4c3)cc2)C1`: the ΔTm in test [1] is 0.63 °C and -0.68 °C; on Peregrin (Homo sapiens), -1.32 °C and 0.92 °C.

With `COc1ccccc1[C@H]1[C@H](C(=O)O)[C@H](c2ccccc2OC)[C@H]1C(=O)Oc1cccc2ccccc12`, the shift in melting temperature (ΔTm) in test [1] is -0.72 °C; on Peregrin (Homo sapiens), 0.27 °C.

With `CCCOc1ccc(NC(=O)CN2CCN(C)CC2)cc1-c1nc(CC)c(CC)c(=O)[nH]1`, the ΔTm in test [1] was -0.52 °C; on Peregrin (Homo sapiens) it was 1.24 °C.

Turning to `CNC(=O)O[C@H]1COc2ccc(N3CCN(C4COC4)CC3)cc2[C@@H]1NC(=O)c1ccc(F)cc1`, the ΔTm in test [1] was 0.9 °C; on Peregrin (Homo sapiens) it was -1.56 °C.

As for `CCOC(=O)NCCCC(=O)NCCc1ccccc1`, the results for the ΔTm (in test [1]; at Peregrin (Homo sapiens)) were 0.51 °C and -0.92 °C, respectively.

For `Cn1nc(C(C)(C)C)cc1C(=O)NC(Cc1cccc(Cl)c1)C(=O)NCC#N` (centres undefined), the ΔTm in test [1] is 0.05 °C; at Peregrin (Homo sapiens), 2.3 °C.

In the case of `Cc1ncsc1-c1ccc(CNC(=O)[C@@H]2C[C@@H](O)CN2C(=O)[C@@H](NC(=O)COCC(C)(COCCOCCOCCNC(=O)C[C@@H]2N=C(c3ccc(Cl)cc3)c3c(sc(C)c3C)-n3c(C)nnc32)COCCOCCOCCNC(=O)C[C@@H]2N=C(c3ccc(Cl)cc3)c3c(sc(C)c3C)-n3c(C)nnc32)C(C)(C)C)cc1`, the shift in melting temperature (ΔTm) in test [1] was -1.18 °C; on Peregrin (Homo sapiens) it was -5.29 °C.

Turning to `COc1cc2c(NC3CCN(C4CCCCC4)CC3)nc(N3CCCN(C(C)C)CC3)nc2cc1OCCCN1CCCCC1`, the ΔTm was 0.34 °C in test [1] and -1.05 °C on Peregrin (Homo sapiens).

Take `O=C1CCc2cc(OCCCCc3nnnn3C3CCCCC3)ccc2N1`: the shift in melting temperature (ΔTm) in test [1] was -0.38 °C; at Peregrin (Homo sapiens), -1.16 °C.

On to `O=C1C(=O)N(Cc2ccccc2)c2ccc(S(=O)(=O)N3CCC[C@H]3COc3ccc(C(F)(F)F)cc3)cc21`, for which the ΔTm in test [1] is 1.01 °C; on Peregrin (Homo sapiens) it was -2.14 °C.

In the case of `O=C1Nc2ccccc2C2(CCN(CC(Cc3ccccc3)Nc3nc4ccc(F)cc4s3)CC2)N1` (centres undefined), the shift in melting temperature (ΔTm) in test [1] was 2.21 °C; on Peregrin (Homo sapiens), 0.27 °C.

As for `Cc1nc(Nc2ncc(C(=O)Nc3c(C)cccc3Cl)s2)cc(N2CCN(CCO)CC2)n1`, the values for the shift in melting temperature (ΔTm) (in test [1]; on Peregrin (Homo sapiens)) were 4.7 °C and -0.2 °C, respectively.

Turning to `COc1cc(Oc2ccnc3cc(OC)c(OC)cc23)ccc1NC(=O)NC(C)c1nccs1` (centres undefined), the ΔTm was -3.29 °C in test [1] and -1.23 °C at Peregrin (Homo sapiens).

On to `C[C@@H](Oc1ccc(S(C)(=O)=O)cc1C(=O)N1C[C@@H]2C[C@]2(c2cc(C(F)(F)F)on2)C1)C(F)(F)F`, for which the shift in melting temperature (ΔTm) in test [1] is -0.81 °C; at Peregrin (Homo sapiens), 0.16 °C.

As for `CC(=O)N[C@@H](CC(C)C)C(=O)N[C@@H](CCC(=O)O)C(=O)N[C@@H](Cc1cnc[nH]1)C(=O)N[C@H](C=O)CC(=O)O` (Ac-LEHD-aldehyde), the shift in melting temperature (ΔTm) was 0.53 °C in test [1] and -1.22 °C on Peregrin (Homo sapiens).

As to `CC1C(C#N)=C(N)OC2=C1C(=O)CC(c1cccc3ccccc13)C2` (centres undefined), the ΔTm in test [1] was -1.52 °C; on Peregrin (Homo sapiens), 1.86 °C.

Regarding `Cc1cc(Cl)cc(-c2c3sc(CN4C(=O)C5C(C4=O)C5(C)C)cc3nn2C)c1OC1CCNCC1` (centres undefined), the results for the shift in melting temperature (ΔTm) (in test [1]; on Peregrin (Homo sapiens)) were -0.72 °C and 0.52 °C, respectively.

Consider `CC(=O)O[C@]1(C(C)=O)CC[C@H]2[C@@H]3CCC4=CC(=O)CCC4=C3[C@@H](c3ccc(N(C)C)cc3)C[C@@]21C`, for which the shift in melting temperature (ΔTm) in test [1] was -0.06 °C; on Peregrin (Homo sapiens), -2.65 °C.

For `CC1=NN(c2ccc(C(=O)O)cc2)C(=O)/C1=C/c1ccc(-c2cc(C)c(C)cc2[N+](=O)[O-])o1`, the ΔTm in test [1] is 0.86 °C; at Peregrin (Homo sapiens) it was -1.58 °C.

`CCn1nc(C2CC2)cc1Nc1nc(C(=O)NC)nc2[nH]c3cc(-c4c(C)noc4C)c(OC)cc3c12`: the ΔTm in test [1] was -0.1 °C; at Peregrin (Homo sapiens), 0.68 °C.

In the case of `O=C(NCc1ncccc1F)c1coc(CCNCCc2nc3ccccc3[nH]2)n1`, the ΔTm is -0.6 °C in test [1] and -1.77 °C at Peregrin (Homo sapiens).

`COc1ccc(C(=O)C2CCN(CC(=O)N(Cc3nc4c(c(=O)[nH]3)COCC4)CC3CC3)CC2)cc1`: the figures for the ΔTm (in test [1]; on Peregrin (Homo sapiens)) were -0.62 °C and 2.73 °C, respectively.

Regarding `O=C1c2ccccc2C(=O)c2oc(-c3ccc(F)cc3)nc21`, the shift in melting temperature (ΔTm) is 0.19 °C in test [1] and -0.98 °C at Peregrin (Homo sapiens).

In the case of `COc1cc(-c2cn(C)c(=O)c3cnccc23)cc(OC)c1CN(C)CC(=O)NCCOCCOCCNc1cccc2c1C(=O)N(C1CCC(=O)NC1=O)C2=O` (centres undefined), the ΔTm was 0.52 °C in test [1] and -0.56 °C at Peregrin (Homo sapiens).

Turning to `COc1cc(C)[nH]c(=O)c1CNC(=O)c1c(C)n([C@H](C)C2CCN(CC(F)(F)F)CC2)c2ccccc12`, the figures for the thermal shift (ΔTm) (in test [1]; at Peregrin (Homo sapiens)) were 0.91 °C and -1.59 °C, respectively.

`C[C@]12CCCN1CC1=NNC(=O)c3cc(F)cc4[nH]c2c1c34`: the thermal shift (ΔTm) was 0.9 °C in test [1] and -1.02 °C at Peregrin (Homo sapiens).

For `Cc1cc(C)nc(SCC(=O)Nc2ncc(Cc3cccc4ccccc34)s2)n1`, the values for the ΔTm (in test [1]; on Peregrin (Homo sapiens)) were -1.85 °C and 3 °C, respectively.

On to `C[C@H](CN[C@@H](C(=O)Nc1ccc(-c2cnn(C)c2)cn1)c1ccccc1)c1ccc(C#N)cc1`, for which the thermal shift (ΔTm) in test [1] is 0.96 °C; on Peregrin (Homo sapiens), -3.43 °C.

`C#CCNC(=O)[C@H](CO)NC(=O)[C@H](CCCCN(CC)CC)NC(=O)[C@@H](NC(=O)[C@@H](NC(=O)[C@H](Cc1ccc(O)c(Cl)c1)NC(=O)c1cc(Cl)cc(Cl)c1)C1CCCC1)[C@@H](C)CC` ({Benzoyl(3,5-Cl2)}-[Tyr(3-Cl)][Gly(cPent)]I[Lys(Et2)]S-{NH(propargyl)}): the results for the thermal shift (ΔTm) (in test [1]; at Peregrin (Homo sapiens)) were -1.31 °C and 1.15 °C, respectively.

As to `Cn1c(=O)cc(N2CCC[C@@H](N)C2)n(Cc2cc(F)ccc2C#N)c1=O`, the ΔTm in test [1] was determined as 0.72 °C; on Peregrin (Homo sapiens), 0.76 °C.

Source of the values: ChEMBL document CHEMBL5724796, “Tm Shift (DSF) assay results for EUbOPEN Chemogenomics Library” (2024).
